Test results published in patent publication US20160237160A1, “ANTI-TWEAKR ANTIBODIES AND USES THEREOF” (BAYER PHARMA AKTIENGESELLSCHAFT, priority 2013, published 2016).
Where two headings read alike, the source gives them in different places.

Columns and labels:
[1] = tested on: Co5676 patient-derived colorectal cancer model; experiment: Xenograft anti-tumor efficacy; format: in vivo, mice; settings: tumor area, TPP-2090 10 mg/kg twice weekly for 4 weeks
Procedure: (§1) After tumor growth to a size of approximately 40 mm^2 mice were randomized into control and treatment groups with a respective group size of n=8-10. Mice were treated with various doses of anti-TWEAKR antibodies diluted in PBS by intravenous injection (i.v.) into the tail vein with a twice per week schedule (q4dx3: applications twice per week, three applications in total; q4dx8: applications twice per week, eight applications in total). Combination therapy partners such as Regorafenib (10 mg/kg daily, per os) and the PI3K-inhibitor 1 (10 mg/kg, BID, 2d on, 5d off (applications twice daily on two consecutive days, followed by five days without treatment), i.v.) were diluted in their respective formulations whereas the standard of care therapies Irinotecan (5 mg/kg, 4d on, 3d off (applications once daily on four consecutive days followed by three days without treatment) i.v.) and Paclitaxel (16 mg/kg, q7dx4 (applications once per week, four applications in total), i.v.) were diluted in 0.9% NaCl. Animals injected with PBS served as the control (vehicle) group. The applied volume of the compounds was 5 ml/kg body weight per mouse.
(§2) Tumor growth was monitored 2-3 times per week by caliper measurement (length×width in mm) as well as body weight (in g). At the end of study tumors were dissected, weighted and used for the calculation of tumor-to-control (T/C) ratios (mean tumor weight of treated animals divided by mean tumor weight of control/vehicle animals). […] 2×10^6 tumor cells in 100% Matrigel were s.c. inoculated in female nude mice. After 7d established tumors with a size of about 40 mm^2 were treated with 0.3 mg/kg, 1 mg/kg and 3 mg/kg of antibodies (i.v., q4dx3: applications twice per week, three applications in total).
(§3) Animal studies were conducted as described in example 8 for further human colorectal cancer tumor cell lines Colo205 and LoVo and for further human colorectal cancer patient-derived models Co7553, Co5896, Co5676, Co5841, CXF 1103 and CXF 533. […] The formulation of regorafenib is described in example 8.

[2] = tested on: CXF533 patient-derived colorectal cancer model; experiment: Xenograft anti-tumor efficacy; format: in vivo, mice; settings: tumor weight, TPP-2090 10 mg/kg twice weekly for 4 weeks
Procedure: as §1, §2, §3

[3] = tested on: Co5841 patient-derived colorectal cancer model; experiment: Xenograft anti-tumor efficacy; format: in vivo, mice; settings: tumor weight, TPP-2090 10 mg/kg twice weekly for 4 weeks
Procedure: as §1, §2, §3

[4] = tested on: CXF1103 patient-derived colorectal cancer model; experiment: Xenograft anti-tumor efficacy; format: in vivo, mice; settings: tumor weight, TPP-2090 10 mg/kg twice weekly for 4 weeks
Procedure: as §1, §2, §3

[5] = tested on: LoVo xenograft (colorectal cancer); experiment: Xenograft anti-tumor efficacy; format: in vivo, mice; settings: tumor weight, TPP-2090 10 mg/kg twice weekly for 4 weeks
Procedure: as §1, §2, §3

[6] = tested on: Colo205 xenograft (colorectal cancer); experiment: Xenograft anti-tumor efficacy; format: in vivo, mice; settings: tumor weight, TPP-2090 10 mg/kg twice weekly for 4 weeks
Procedure: as §1, §2, §3

[7] = tested on: Co7553 patient-derived colorectal cancer model; experiment: Xenograft anti-tumor efficacy; format: in vivo, mice; settings: tumor weight, TPP-2090 10 mg/kg twice weekly for 4 weeks
Text: Tumor growth was monitored 2-3 times per week by caliper measurement (length×width in mm) as well as body weight (in g). […]

[8] = target: T1, TWEAKR protein (TPP-2305) (Homo sapiens, UniProt Q9NP84); experiment: Biacore monovalent KD with TWEAKR protein; format: binding; settings: first order 1:1 binding model
T1 construct: TPP-2305; hTNFRSF12Aaa28-80; Human; 30R-AT080; 168; purchased Fitzgerald Inc 30R-AT080
Procedure: Binding affinities of anti-TWEAKR antibodies were determined by surface plasmon resonance analysis on a Biacore T100 instrument (GE Healthcare Biacore, Inc.). Antibodies were immobilized onto a CM5 sensor chip through an indirect capturing reagent, anti-human IgG(Fc). Reagents from the “Human Antibody Capture Kit” (BR-1008-39, GE Healthcare Biacore, Inc.) were used as described by the manufacturer. Anti-TWEAKR antibodies were injected at a concentration of 10 μg/ml at 10 μl/min for 10 sec.
Sensorgrams were generated after in-line reference cell correction followed by buffer sample subtraction. The dissociation equilibrium constant (KD) was calculated based on the ratio of association (kon) and dissociation rated (koff) constants, obtained by fitting sensorgrams with a first order 1:1 binding model.

[9] = target: T2, TWEAKR(28-68)-HIS (TPP-1984) (Homo sapiens, UniProt Q9NP84); experiment: ELISA with C-terminally truncated TWEAKR ectodomain; format: binding; settings: coating 1 μg/ml; 0.08 and 0.3 μg/ml biotinylated IgG
T2 construct: Extracellular domain with C-terminal truncation (28-68) fused to HIS6 tag; made in house
Procedure: (§4) To analyze for binding, 1 μg/ml of the respective dimeric TWEAKR-Fc construct were coated and, 0.3 μg/ml and 0.08 μg/ml of biotinylated IgG were used as soluble binding partner. Detection was done with Streptavidin-HRP and Amplex-Red substrate. IgGs were biotinylated using an approximately 2-fold molar excess of biotin-LC-NHS (Pierce; Cat. No. 21347) according to manufacturer's instructions and desalted using Zeba desalting columns (Pierce; Cat. No. 89889).

TWEAKR = TWEAKR (Homo sapiens, UniProt Q9NP84); settings: published data, read-out: KD / binding affinity to TWEAKR (published), cited from earlier work
[10] = target: T3, TWEAKR-Fc fusion protein (TPP-2202), aa 28-80 (Homo sapiens, UniProt Q9NP84); experiment: ELISA with TWEAKR full ectodomain; format: binding; settings: coating 1 μg/ml; 0.08 and 0.3 μg/ml biotinylated IgG
T3 construct: the full ectodomain 28-80 including the N- and C-terminus; made in house
Text: (§5) In a first approach to characterize the binding epitope of the aforementioned antibodies, a N- and C-terminal truncation mutant of the TWEAKR ectodomain was generated and tested for its ability to bind to the different anti-TWEAKR antibodies. N-terminally, amino acids 28 to 33 and C-terminally amino acids 69 to 80 were deleted, thus the cysteine rich domain with disulfide bridges between Cys36-Cys49, Cys52-Cys67 and Cys55-Cys64 remains intact (compare FIG. 2). Both constructs, the full ectodomain 28-80 including the N- and C-terminus and the truncated ectodomain 34-68 were expressed and purified as Fc fusion proteins TPP-2202 and TPP-2203, respectively.
as §4

[11] = target: T4, TWEAKR(34-68)-Fc fusion protein (TPP-2203) (Homo sapiens, UniProt Q9NP84); experiment: ELISA with TWEAKR cysteine rich domain; format: binding; settings: coating 1 μg/ml; 0.08 and 0.3 μg/ml biotinylated IgG
T4 construct: the truncated ectodomain 34-68 were expressed and purified as Fc fusion proteins; made in house
Text: as §5, §4

Lovo cells = experiment: Inhibition of proliferation (Cell Titer Glo); format: cell-based, human; settings: 72h, 100 μg/ml antibody or *100 ng/ml TWEAK
Procedure: (§6) Therefore cells were plated in 96well plates in 750 assay medium (growth media from Table 21, plus 100 ng/ml IFN gamma for 786-O cells) at the following cell numbers: WiDr cells 3000 cells/well, 786-O cells 2500 cells/well. 24 h later cells were incubated with anti-TWEAKR antibodies (see Table 26), recombinant human TWEAK or isotype control IgG (not shown) at the indicated concentrations (antibodies from 0.03-300 μg/ml, TWEAK 100 or 300 ng/ml). At the time of antibody addition cell viability was determined in sister plates (time point zero): therefore 750/well CTG solution (Promega Cell Titer Glo solution (catalog # G755B and G756B) was added to the cells, incubated for 10 minutes and luminescence was read on a Victor V (Perkin Elmer). 96 h after incubation with the agents, cell viability was determined in the assay plates by addition of 100 μl/well CTG solution, 10 min incubation and reading of luminescence. Proliferation in control wells was calculated by subtracting time zero values from the luminescence values in the untreated control wells. % of cell proliferation was calculated in the compound treated wells as compared to the untreated control wells.
(§7) To evaluate, whether this strong anti-proliferative activity can also be observed in a broader cell panel, in addition LOVO, NCI-H1975, SW-480 (all 3000 cells/well), HT-29 (4000 cells/well), A253 and SK-OV3 (both 2500 cells/well) cells were incubated with 100 μg/ml anti-TWEAKR antibodies or TWEAK ligand for the time periods as indicated in Table 27. All cells were seeded in the growth media indicated in Table 21 and for all cells except for WiDr cells 100 ng/ml IFNgamma was added to the assay medium when seeding the cells. The percentage of growth inhibition for treated cells as compared to proliferation in untreated control cells was measured and calculated as described above. As shown in Table 27 the antibodies of the current invention are more efficacious as compared to other known antibodies in inhibiting proliferation of various cancer cell lines at 100 μg/ml. In most experiments the antibodies of the current invention also show equal or stronger efficacy as compared to 100-300 ng/ml TWEAK ligand. Thus, the antibodies described in this invention are unique in their activity to induce apoptosis and proliferation inhibition in a broad panel of cancer cell lines.

NCI-H1975 cells = experiment: Inhibition of proliferation (Cell Titer Glo); format: cell-based, human; settings: 72h, 100 μg/ml antibody or *100 ng/ml TWEAK
Procedure: as §6, §7

SW480 cells = experiment: Inhibition of proliferation (Cell Titer Glo); format: cell-based, human; settings: 72h, 100 μg/ml antibody or *100 ng/ml TWEAK
Procedure: as §6, §7

For O=c1[nH]cc(F)c(=O)[nH]1 [5-FU, 5-fluorouracil], the “Final T/C” value [1] was 0.45, the “Final T/C” value [2] was 0.28 and the “Final T/C” value [3] was 0.48. For the same compound, the “Final T/C” value [4] was 0.97.
In the case of CCc1c2c(nc3ccc(OC(=O)N4CCC(N5CCCCC5)CC4)cc13)-c1cc3c(c(=O)n1C2)COC(=O)[C@]3(O)CC [Irinotecan], the “Final T/C” value [1] is reported as 0.37, the “Final T/C” value [5] is reported as 0.52 and the “Final T/C” value [3] is reported as 0.17. The “Final T/C” value [4] was 0.66, the “Final T/C” value [6] was 0.47 and the “Final T/C” value [7] was 0.11.
For O=C1[O][Pt]2([NH][C@@H]3CCCC[C@H]3[NH]2)[O]C1=O [Oxaliplatin, oxaliplatin], the “Final T/C” value [5] was 0.76, the “Final T/C” value [2] was 1.08 and the “Final T/C” value [3] was 0.81. For the same compound, the “Final T/C” value [4] was 1.29, the “Final T/C” value [6] was 0.89 and the “Final T/C” value [7] was 0.78.
In the case of “P4A8(TPP-1324): reference agonistic anti-TWEAKR antibody, human IgG1, variable domains from WO2009/140177; SEQ ID NO 125/126 [reference compound]”, the ka [8] is reported as 1.2e+06 M⁻¹ s⁻¹, the kd [8] is reported as 0.0027 s⁻¹ and the “ELISA binding to C-terminally truncated ectodomain (28-68)” value [9] is reported as “impaired binding”. The Kd (TWEAKR; listed as BIIB036/P4A8) was 1.7 nM, the Kd (TWEAKR) was 2.6 nM and the “ELISA binding to full ectodomain (28-80)” value [10] was “saturated binding”. For the same compound, the “ELISA binding to N- and C-terminally truncated construct (34-68)” value [11] was “impaired binding”, the “% Inhibition of proliferation” value (Lovo cells) was −5% and the “% Inhibition of proliferation” value (NCI-H1975 cells) was 20%. For the same compound, the “% Inhibition of proliferation” value (SW480 cells) was 5%.
